Test results: ChEMBL document CHEMBL1201862, “PubChem BioAssay data set” (2004)
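How tested: cells in 96-well plates exposed to compound for 48 hours at five concentrations. At the GI50, growth is halved.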 Calls of active or inactive are those of the source. No stated cut-off is given here; in the data, active = GI50 up to about 1.1 µM and inactive = higher.

What was measured:
Test in all cases: inhibition of tumour cell growth, NCI panel, 48 h
U-251 = system: U-251
SN12C = system: SN12C
OVCAR-3 = system: OVCAR-3
M14 = system: M14
RXF 393 = system: RXF 393
MDA-N = system: MDA-N
CCRF-CEM = system: CCRF-CEM
UACC-62 = system: UACC-62
SK-MEL-28 = system: SK-MEL-28
NCI/ADR-RES = system: NCI/ADR-RES
TK-10 = system: TK-10
NCI-H23 = system: NCI-H23
OVCAR-8 = system: OVCAR-8
K562 = system: K562
HL-60 = system: HL-60
SF-268 = system: SF-268
SK-OV-3 = system: SK-OV-3
Malme-3M = system: Malme-3M
SR = system: SR
HCT-116 = system: HCT-116

| Structure (SMILES) | GI50 (U-251) | GI50 (SN12C) | GI50 (OVCAR-3) | GI50 (M14) | GI50 (RXF 393) | GI50 (MDA-N) | GI50 (CCRF-CEM) | GI50 (UACC-62) | GI50 (SK-MEL-28) | GI50 (NCI/ADR-RES) | GI50 (TK-10) | GI50 (NCI-H23) | GI50 (OVCAR-8) | GI50 (K562) | GI50 (HL-60) | GI50 (SF-268) | GI50 (SK-OV-3) | GI50 (Malme-3M) | GI50 (SR) | GI50 (HCT-116) |
| --- | --- | --- | --- | --- | --- | --- | --- | --- | --- | --- | --- | --- | --- | --- | --- | --- | --- | --- | --- | --- |
| Cc1cc(=O)n2nc(CSc3nnc(S)s3)sc2n1 | > 100 µM (inactive) | > 100 µM (inactive) | > 100 µM (inactive) | > 100 µM (inactive) | > 100 µM (inactive) | > 100 µM (inactive) | > 100 µM (inactive) | > 100 µM (inactive) | > 100 µM (inactive) | > 100 µM (inactive) | > 100 µM (inactive) | > 100 µM (inactive) | > 100 µM (inactive) | > 100 µM (inactive) | > 100 µM (inactive) | > 100 µM (inactive) | > 100 µM (inactive) | > 100 µM (inactive) | > 100 µM (inactive) | > 100 µM (inactive) |
| CSc1nc(Cl)c2c(n1)Sc1ncnn1C2O (stereo not given) | 14.9 µM (inactive) | 11 µM (inactive) | 7.31 µM (inactive) | 14.3 µM (inactive) | 2.58 µM (inactive) | 7.13 µM (inactive) | 1.56 µM (inactive) | 12.6 µM (inactive) | 29.2 µM (inactive) | 25.9 µM (inactive) | 17.2 µM (inactive) | 14.2 µM (inactive) | 2.82 µM (inactive) | 3.62 µM (inactive) | 0.0547 µM (active) | 6.61 µM (inactive) | 27.3 µM (inactive) | 3.18 µM (inactive) | 2.86 µM (inactive) | 5.12 µM (inactive) |
| O=Nc1c(-c2c(O)[nH]c3ccccc23)[nH]c2ccccc12 [INDIRUBIN-3-MONOXIME] | 6.97 µM (inactive) | 2.98 µM (inactive) | 3.88 µM (inactive) | 5.61 µM (inactive) | 1.93 µM (inactive) | 4.58 µM (inactive) | 4.4 µM (inactive) | 2.93 µM (inactive) | 6.9 µM (inactive) | 5.77 µM (inactive) | 5.79 µM (inactive) | 7.83 µM (inactive) | 4.45 µM (inactive) | 2.67 µM (inactive) | 2.72 µM (inactive) | 5.5 µM (inactive) | 1.56 µM (inactive) | 3.89 µM (inactive) | 4.85 µM (inactive) | 2.52 µM (inactive) |
